In patent US12310985B2, “Composition and method for treatment of diabetes” (SHENZHEN PROFOUND VIEW PHARMACEUTICAL TECHNOLOGY, priority 2020, dated 2025):
Structures can show the parent of a compound that is named as a salt.

Legend:
Assay type in all cases: in vivo
[1] = Body weight of mice during experiments (high energy feed + STZ diabetic model); conditions: Sample 10 mg/kg i.p., Positive control 22.5 mg/kg intragastric, 1 time/day
Source text: 3.2.1 C57BL/6 mice are more commonly used in diabetes tests. 90 C57BL/6 male mice (SPF level) with a body weight of 18.8-24.2 g at the beginning of the experiment were purchased from Guangdong Medical Laboratory Animal Center (Experimental Animal Production License No. SCXK (Yue) 2018-0002; Animal Certificate No. 44007200059759);
(§1) After each group was given a maintenance feed for 1 week, except for the negative control group, the other groups were replaced with the high energy feed from 3.1.7.1. After 3 weeks of feeding, each group was fasted for 24 h. Except for the negative control group, the other groups were intraperitoneally injected with 5 mg/mL STZ solution at a dose of 20 mL/kg bodyweight. All groups were fed for 4 days. Fasting blood glucose and glucose tolerance were measured on the 5th day, and the test was terminated the next day.
(§2) From the feeding of the maintenance feed, the sample group was intraperitoneally injected with the test sample solution once per day at 20 mL/kg bodyweight, the negative control group and the model control group were intraperitoneally injected with sodium chloride solution, and the positive control group was intragastrically administered with pioglitazone hydrochloride solution at a dose of 20 mL/kg bodyweight for 34 days until the end of the test. On the day of injection of STZ, each group was administered 4 h after STZ injection.
Weighed at the beginning of the trial, at the end of the trial, and once a week during the trial.

[2] = tested on: C57BL/6 male mice, high energy feed + STZ diabetic model; assay: Fasting blood glucose index
Experimental: as §1, §2
On the 5th day after intraperitoneal injection of STZ, the mice in each group were fasted for about 5 hours with water provided. After measuring the fasting blood glucose level (0 h), the sample group and positive control group were intraperitoneally injected with the corresponding drugs. The negative control group and the model control group were intraperitoneally injected with sodium chloride solution. After 20 minutes, each group was intragastrically administered with 0.125 g/mL glucose solution at 20 mL/kg bodyweight, and the blood glucose level was measured at 0.5, 1, 1.5, 2 h after the administration of the glucose solution. On the next day, the mice in each group were fasted for 5 h after the administration. The mice were anesthetized with 3% sodium pentobarbital solution in an amount of 10 mL/kg bodyweight, and sacrificed after collecting the eyeballs and bloods. The blood samples were centrifuged at 3000 r/min for 10 min, and the sera were collected for the detection of serum insulin, triglycerides, and total cholesterol. […]

[3] = tested on: C57BL/6 male mice, high energy feed + STZ diabetic model; assay: Glucose tolerance index; conditions: Sample 10 mg/kg, Positive control 22.5 mg/kg
Experimental: as §1, §2
On the 5th day after intraperitoneal injection of STZ, the mice in each group were fasted for about 5 hours with water provided. After measuring the fasting blood glucose level (0 h), the sample group and positive control group were intraperitoneally injected with the corresponding drugs. The negative control group and the model control group were intraperitoneally injected with sodium chloride solution. After 20 minutes, each group was intragastrically administered with 0.125 g/mL glucose solution at 20 mL/kg bodyweight, and the blood glucose level was measured at 0.5, 1, 1.5, 2 h after the administration of the glucose solution. On the next day, the mice in each group were fasted for 5 h after the administration. The mice were anesthetized with 3% sodium pentobarbital solution in an amount of 10 mL/kg bodyweight, and sacrificed after collecting the eyeballs and bloods. The blood samples were centrifuged at 3000 r/min for 10 min, and the sera were collected for the detection of serum insulin, triglycerides, and total cholesterol. At the same time, the pancreas of each animal was collected. Six animals in each group were fixed with 10% paraformaldehyde for HE staining and insulin immunohistochemical staining in pancreas. The remaining 6 animals were preserved at −80° C. for insulin content determination.
Calculate the area under the blood glucose curve at 0, 0.5, 1, 1.5, 2 h after glucose administration. The formula is as follows:
Area under the blood glucose curve: [(0 h blood glucose+0.5 h blood glucose)×0.5]/2+[(0.5 h blood glucose+1 h blood glucose)×0.5]/2+[(1 h blood glucose+1.5 h) Blood glucose level)×0.5]/2+[(1.5 h blood glucose level+2 h blood glucose value)×0.5]/2.

[4] = tested on: C57BL/6 male mice, high energy feed + STZ diabetic model; assay: Serum cholesterol (TC) and triglyceride (TG) content; conditions: serum at end of experiment; Sample 10 mg/kg, Positive control 22.5 mg/kg
Experimental: as §1, with “day. […]” for “day.”
(§3) On the 5th day after intraperitoneal injection of STZ, the mice in each group were fasted for about 5 hours with water provided. […] After 20 minutes, each group was intragastrically administered with 0.125 g/mL glucose solution at 20 mL/kg bodyweight, and the blood glucose level was measured at 0.5, 1, 1.5, 2 h after the administration of the glucose solution. […]
(§4) At the end of the experiment, serum was collected for assaying serum insulin, triglycerides, and total cholesterol. The insulin resistance index was calculated.

[5] = tested on: C57BL/6 male mice, high energy feed + STZ diabetic model; assay: Serum insulin content; conditions: end of experiment; Sample 10 mg/kg, Positive control 22.5 mg/kg
Experimental: as §1, with “day. […]” for “day.”
as §3, §4

[6] = tested on: C57BL/6 male mice, high energy feed + STZ diabetic model; assay: Pancreatic insulin content (ELISA); conditions: end of experiment, Sample 10 mg/kg, Positive control 22.5 mg/kg
Experimental: as §1
as §2, with “On the day of injection of STZ, each group was administered 4 h after STZ injection.” left out
as §3

## CCc1ccc(CCOc2ccc(CC3SC(=O)NC3=O)cc2)nc1 (stereo not shown) [Positive control, Pioglitazone hydrochloride]
[1]; d 2
  Bodyweight: 22.2 ± 1.2 g
[1]; d 9
  Bodyweight: 23.0 ± 1.3 g
[1]; d 16
  Bodyweight: 24.2 ± 1.2 g
[1]; d 23
  Bodyweight: 25.6 ± 1.5 g
[1]; d 29
  Bodyweight: 26.2 ± 1.6 g
[1]; d 32
  Bodyweight: 26.0 ± 1.4 g
[1]; d 35
  Bodyweight: 25.8 ± 1.3 g
[2]; 5th day after STZ, fasting about 5 h, Sample 10 mg/kg i.p., Positive control 22.5 mg/kg intragastric, 1 time/day
  Fasting blood glucose index, Post experiment: 13.8 ± 2.8 mmol/L
[2]; (prior − post)/prior × 100%, Sample 10 mg/kg i.p., Positive control 22.5 mg/kg intragastric
  Decrease percentage of blood glucose: −21.8 ± 39.0%
[2]; prior to experiment (baseline), fasting about 5 h
  Fasting blood glucose index, Prior to Experiment: 12.0 ± 2.6 mmol/L
[3]; 0 h, 5th day after STZ
  Glucose tolerance index, blood glucose: 13.8 ± 2.8 mmol/L
[3]; 0.5 h after glucose administration
  Glucose tolerance index, blood glucose: 30.1 ± 5.4 mmol/L
[3]; 1 h after glucose administration
  Glucose tolerance index, blood glucose: 26.9 ± 7.0 mmol/L
[3]; 1.5 h after glucose administration
  Glucose tolerance index, blood glucose: 20.7 ± 6.2 mmol/L
[3]; 2 h after glucose administration
  Glucose tolerance index, blood glucose: 17.9 ± 6.3 mmol/L
[4]
  TC: 4.76 ± 0.56 mmol/L
  TG: 0.76 ± 0.14 mmol/L
[5]
  serum insulin content: 28.2 ± 3.6 mIU/mL
[6]
  pancreatic insulin content: 8.4 ± 3.0 mIU/mL
